# Source: patent US10494380B2, “Nitrogen-containing tricyclic derivatives having HIV replication inhibitory activity” (priority 2015, dated 2019)
# Test system: T125A mutant virus (HIV-1 NL-432 recombinant molecular clone, IN gene)
# Experiment: HIV replication inhibition assay against integrase 124/125 mutant virus (Test Example 2)
# Assay type: cell-based
# Conditions: Human immunodeficiency virus 1, MT4, read-out: EC50 against T125A mutant virus, T125A mutant virus (HIV-1 NL-432 IN gene), MT-4 cells, MTT
# Description: Persistently HIV (HTLV-IIIB strain) infected human T cell strain Molt-4 clone8 was cultured in RPMI-1640 medium supplemented with 10% fetal bovine serum and the supernatant was filtered, then the virus titer was measured and stored at −80° C. Polymorphic mutations in HIV-1-infected patients have been observed in amino acids 124 and 125 on the HIV-1 integrase (IN) gene. A point mutation was introduced on the amino acids 124 and/or 125 of IN gene of the HIV-1 NL-432 recombinant molecular clone to generate a mutant virus plasmid construct. These mutant virus plasmids were transfected into 293T cells, and after two days, the supernatant was filtered and then the virus titer was measured and stored at −80° C. Each anti-HIV active substance was diluted with culture medium described above to the designated concentration, which was dispensed into 96-well microtiter plate by 50 μL. Next, 100 μL of MT-4 cell suspension (2.5×10^4 cells) was dispensed into each well, then 50 μl of HIV-containing supernatant diluted with culture medium described above was added thereto (60 pfu (plaque forming unit)).
# Cells were cultured at 37° C. in CO2 incubator for four days, then 30 μL of MTT (3-(4,5-dimethylthiazole-2-yl)-2,5-diphenyltetrazolyum bromide) reagent (5 mg/mL in PBS) was added to all wells followed by incubation for 1 hour. In this step, MTT was reduced to insoluble formazan in living cells. To elute generated formazan, 150 μL of the culture supernatant was removed from all wells, then 150 μL of cell lysis solution (10% Triton X-100 and 0.4% (v/v)-HCl containing isopropanol) was added thereto, followed by shaking with a plate mixer. The formazan was measured with micro plate reader at OD: 560 nm and 690 nm (reference wavelength) and the result was compared with the reference wells. EC50 means the compound concentration at which 50% of cytotoxicity caused by virus infection is inhibited.
row,Structure (SMILES),EC50 [nM]
1,[2H]C1([2H])N(C(=O)OC)c2c(C)c([C@H](OC(C)(C)C)C(=O)O)c(-c3ccc(Cl)cc3)c3cc(C)n(c23)C1([2H])[2H] [Compound I-097],9.7
2,[2H]C([2H])([2H])N1c2c(C)c([C@H](OC(C)(C)C)C(=O)O)c(-c3ccc(Cl)cc3)c3cc(C)n(c23)C([2H])([2H])C1([2H])[2H] [Compound I-103],3.4
3,[2H]C([2H])([2H])N1CCn2c(C)cc3c(-c4ccc(Cl)cc4)c([C@H](OC(C)(C)C)C(=O)O)c(C)c1c32 [Compound I-104],4.1
4,[2H]C1([2H])N(C)c2c(C)c([C@H](OC(C)(C)C)C(=O)O)c(-c3ccc(F)cc3)c3cc(C)n(c23)C1([2H])[2H] [Compound I-105],11
5,[2H]C([2H])([2H])N1c2c(C)c([C@H](OC(C)(C)C)C(=O)O)c(-c3ccc(F)cc3)c3cc(C)n(c23)C([2H])([2H])C1([2H])[2H] [Compound I-106],11
6,Cc1c([C@H](OC(C)(C)C)C(=O)O)c(-c2ccc(Cl)cc2)c2cc(C)n3c2c1N(Cc1ccccc1)CC3 [Compound I-107],25
7,COCC[C@@H]1Cn2c(C)cc3c(-c4ccc(Cl)cc4)c([C@H](OC(C)(C)C)C(=O)O)c(C)c(c32)N1S(C)(=O)=O [Compound I-108],19
8,COCC[C@H]1Cn2c(C)cc3c(-c4ccc(Cl)cc4)c([C@H](OC(C)(C)C)C(=O)O)c(C)c(c32)N1C [Compound I-109],15
9,COC(=O)N1c2c(C)c([C@H](OC(C)(C)C)C(=O)O)c(-c3ccc(Cl)cc3)c3cc(C)n(c23)C[C@H]1C [Compound I-111],4.2
10,Cc1c([C@H](OC(C)(C)C)C(=O)O)c(-c2ccc(Cl)cc2)c2cc(C)n3c2c1N(CCN(C)C)[C@@H](C)C3 [Compound I-113],22
11,Cc1c([C@H](OC(C)(C)C)C(=O)O)c(-c2ccc(F)cc2)c2cc(Cl)n3c2c1N(C)CC3 [Compound I-114],18
12,[2H]C1([2H])N(C)c2c(C)c([C@H](OC(C)(C)C)C(=O)O)c(-c3ccc(Cl)cc3)c3cc(Cl)n(c23)C1([2H])[2H] [Compound I-115],11
13,Cc1c([C@H](OC(C)(C)C)C(=O)O)c(-c2ccc(Cl)cc2)c2cc(C)n3c2c1N(Cc1ncccn1)CC3 [Compound I-116],6.7
14,Cc1c([C@H](OC(C)(C)C)C(=O)O)c(-c2ccc(Cl)cc2)c2cc(C)n3c2c1N(Cc1ccccn1)CC3 [Compound I-117],8.6
15,[2H]C([2H])([2H])N1CCn2c(C)cc3c(-c4ccc(F)cc4)c([C@H](OC(C)(C)C)C(=O)O)c(C)c1c32 [Compound I-118],10
16,Cc1c([C@H](OC(C)(C)C)C(=O)O)c(-c2ccc(F)cc2)c2cc(C)n3c2c1N(c1ncccn1)CC3 [Compound I-123],14
17,Cc1c([C@H](OC(C)(C)C)C(=O)O)c(-c2ccc(Cl)cc2)c2cc(C)n3c2c1N(c1ccccn1)CC3 [Compound I-125],8.2
18,Cc1c([C@H](OC(C)(C)C)C(=O)O)c(-c2ccc(Cl)cc2)c2cc(C)n3c2c1N(C)CC3(C)C [Compound I-127],16
19,Cc1c([C@H](OC(C)(C)C)C(=O)O)c(-c2ccc(Cl)cc2)c2cc(C)n3c2c1N1C(=O)OCC[C@H]1C3 [Compound I-129],89
20,Cc1ccc(-c2c([C@H](OC(C)(C)C)C(=O)O)c(C)c3c4c2cc(C)n4CCN3CCN2CCOCC2)cc1 [Compound I-131],15
21,COC(=O)N1CCn2c(C)cc3c(-c4ccc(F)cc4)c([C@H](OC(C)(C)C)C(=O)O)c(C)c1c32 [Compound I-132],28

row,Structure (SMILES),EC50 [nM]
1,Cc1c([C@H](OC(C)(C)C)C(=O)O)c(-c2ccc(Cl)cc2)c2cc(C)n3c2c1N(Cc1ccncc1)CC3 [Compound I-135],8.2
2,Cc1c([C@H](OC(C)(C)C)C(=O)O)c(-c2ccc(Cl)cc2)c2cc(C)n3c2c1N(Cc1cccnc1)CC3 [Compound I-136],8.4
3,Cc1c([C@H](OC(C)(C)C)C(=O)O)c(-c2ccc(Cl)cc2)c2cc(C)n3c2c1N(S(=O)(=O)c1cccnc1)CC3 [Compound I-139],6.8
4,CC(=O)N(C)CCN1CCn2c(C)cc3c(-c4ccc(C)cc4)c([C@H](OC(C)(C)C)C(=O)O)c(C)c1c32 [Compound I-141],41
5,Cc1c([C@H](OC(C)(C)C)C(=O)O)c(-c2ccc(Cl)cc2)c2cc(C)n3c2c1N1C(=O)OC[C@@H]1C3 [Compound I-146],16
6,Cc1csc(N2CCn3c(C)cc4c(-c5ccc(Cl)cc5)c([C@H](OC(C)(C)C)C(=O)O)c(C)c2c43)n1 [Compound I-147],16
7,Cc1ccc(-c2c([C@H](OC(C)(C)C)C(=O)O)c(C)c3c4c2cc(C)n4C[C@@H](C)N3CCN(C)C)cc1 [Compound I-148],22
8,Cc1c([C@H](OC(C)(C)C)C(=O)O)c(-c2ccc(Cl)cc2)c2cc(C)n3c2c1N(C1CCOCC1)CC3 [Compound I-149],15
9,Cc1coc(N2CCn3c(C)cc4c(-c5ccc(Cl)cc5)c([C@H](OC(C)(C)C)C(=O)O)c(C)c2c43)n1 [Compound I-150],15
10,Cc1c([C@H](OC(C)(C)C)C(=O)O)c(-c2ccc(Cl)cc2)c2cc(C)n3c2c1N(Cc1cncnc1)CC3 [Compound I-153],11
11,Cc1c([C@H](OC(C)(C)C)C(=O)O)c(-c2ccc(Cl)cc2)c2cc(C)n3c2c1N(c1ccc(F)cn1)CC3 [Compound I-154],13
12,Cc1c([C@H](OC(C)(C)C)C(=O)O)c(-c2ccc(Cl)cc2)c2cc(C)n3c2c1N(c1ccncc1)CC3 [Compound I-155],58
13,Cc1ccc(-c2c([C@H](OC(C)(C)C)C(=O)O)c(C)c3c4c2cc(C)n4C[C@@H](C)N3CCN2CCOCC2)cc1 [Compound I-158],4.6
14,Cc1c(-c2c([C@H](OC(C)(C)C)C(=O)O)c(C)c3c4c2cc(C)n4CCN3C)ccc2c1NCCO2 [Compound I-160],70
15,Cc1c([C@H](OC(C)(C)C)C(=O)O)c(-c2ccc(Cl)cc2)c2cc(C)n3c2c1N(c1ncc(OCc2ccc(F)cc2)cn1)CC3 [Compound I-236],9.9
16,Cc1c([C@H](OC(C)(C)C)C(=O)O)c(-c2ccc(Cl)cc2)c2cc(C)n3c2c1N(c1ncc(OC(C)C)cn1)CC3 [Compound I-261],3.7
17,Cc1ccc(-c2c([C@H](OC(C)(C)C)C(=O)O)c(C)c3c4c2cc(C)n4CCN3c2ncc(Cl)cn2)cc1 [Compound I-263],7.2
18,Cc1ccc(-c2c([C@H](OC(C)(C)C)C(=O)O)c(C)c3c4c2cc(C)n4CCN3c2ncc(C3CC3)cn2)cc1 [Compound I-271],4.2
19,COc1ccnc(N2CCn3c(C)cc4c(-c5ccc(C)cc5)c([C@H](OC(C)(C)C)C(=O)O)c(C)c2c43)c1 [Compound I-277],14
20,Cc1ccc(-c2c([C@H](OC(C)(C)C)C(=O)O)c(C)c3c4c2cc(C)n4CCN3c2ncc(CO)cn2)cc1 [Compound I-290],22
21,C=CCN1CCn2c(C)cc3c(-c4ccc(C)cc4)c([C@H](OC(C)(C)C)C(=O)O)c(C)c1c32 [Compound I-294],16

# Same assay, conditions: T125A mutant virus (HIV-1 NL-432 IN gene), MT-4 cells, MTT; read-out: EC50 against T125A mutant virus
row,Structure (SMILES),EC50 [nM]
1,Cc1ccc(-c2c([C@H](OC(C)(C)C)C(=O)O)c(C)c3c4c2cc(C)n4CCN3c2ncc(N(C)S(C)(=O)=O)cn2)cc1 [Compound I-201],14
2,CC(=O)Nc1cnc(N2CCn3c(C)cc4c(-c5ccc(C)cc5)c([C@H](OC(C)(C)C)C(=O)O)c(C)c2c43)nc1 [Compound I-202],56
3,Cc1c([C@H](OC(C)(C)C)C(=O)O)c(-c2ccc(Cl)cc2)c2cc(C)n3c2c1N(c1ncc(OC(F)F)cn1)CC3 [Compound I-214],4
4,COc1cnc(N2CCn3c(C)cc4c(-c5ccc(Cl)cc5)c([C@H](OC(C)C)C(=O)O)c(C)c2c43)nc1 [Compound I-215],47
5,Cc1ccc(-c2c([C@H](OC(C)(C)C)C(=O)O)c(C)c3c4c2cc(C)n4CCN3c2ncc(OCCNS(C)(=O)=O)cn2)cc1 [Compound I-222],89

# Same assay, conditions: read-out: EC50 against T125A mutant virus; T125A mutant virus (HIV-1 NL-432 IN gene), MT-4 cells, MTT
row,Structure (SMILES),EC50 [nM]
1,COC(=O)N1CC(C)n2c(C)cc3c(-c4ccc(Cl)cc4)c([C@H](OC(C)(C)C)C(=O)O)c(C)c1c32 (some centres unmarked) [Compound I-119],2.8
2,COC(=O)N1CC(C)n2c(C)cc3c(-c4ccc(Cl)cc4)c([C@H](OC(C)(C)C)C(=O)O)c(C)c1c32 (some centres unmarked) [Compound I-120],52
3,Cc1c([C@H](OC(C)(C)C)C(=O)O)c(-c2ccc(F)cc2)c2cc(C)n3c2c1N(C)CC3C (some centres unmarked) [Compound I-133],96
4,Cc1c([C@H](OC(C)(C)C)C(=O)O)c(-c2ccc(F)cc2)c2cc(C)n3c2c1N(C)CC3C (some centres unmarked) [Compound I-134],8.4
5,Cc1c([C@H](OC(C)(C)C)C(=O)O)c(-c2ccc(Cl)cc2)c2cc(C)n3c2c1N(C)C1COCC13 (some centres unmarked) [Compound I-137],86
6,Cc1ccc(-c2c([C@H](OC(C)(C)C)C(=O)O)c(C)c3c4c2cc(C)n4C(C)CN3CCN(C)C)cc1 (some centres unmarked) [Compound I-163],38
